Source: ChEMBL document CHEMBL1201862, “PubChem BioAssay data set” (2004)
Activity calls are given as the source filed them.

Legend:
HT-1080 = assay: HT1080 cell viability loss – fluorescence readout (AID 620); format: functional, cell-based; conditions: Homo sapiens
[1] = biological target: Luciferin 4-monooxygenase (Photinus pyralis, UniProt P08659); assay: Counter Screen for Luciferase-based Assay Positives. [Related pubchem assays: 620, 618, 411 ]
Galanin receptor type 2 = Galanin receptor type 2 (Homo sapiens, UniProt O43603); assay: Dose Response cell-based high-throughput screening assay to identify antagonists of galanin receptor 2 (GALR2). [Related pubchem assays: 828, 866 ]; format: functional
Sequence of Galanin receptor type 2 (O43603 whole entry): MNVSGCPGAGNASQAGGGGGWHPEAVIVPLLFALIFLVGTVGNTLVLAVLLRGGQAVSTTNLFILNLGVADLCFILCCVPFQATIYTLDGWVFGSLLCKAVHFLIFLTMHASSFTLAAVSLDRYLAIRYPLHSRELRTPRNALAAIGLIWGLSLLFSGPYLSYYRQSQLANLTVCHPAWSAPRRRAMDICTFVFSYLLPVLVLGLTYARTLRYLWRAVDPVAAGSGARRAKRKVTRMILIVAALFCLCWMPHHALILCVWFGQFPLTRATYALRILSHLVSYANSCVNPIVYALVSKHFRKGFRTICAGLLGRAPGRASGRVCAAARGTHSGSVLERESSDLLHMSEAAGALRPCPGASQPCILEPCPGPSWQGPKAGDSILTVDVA

[2] = HEK-293T cell viability reduction – luminescence, B-cell screen hits, cytotoxicity control for BCR NF-kB inhibitor project, dose response (AID 489021); format: functional, cell-based;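 note: HEK-293T cells carrying an NF-kB luciferase reporter; cells exposed to compound for about 14 hours before viability readout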
[3] = biological target: T1, COUP transcription factor 2 (Homo sapiens, UniProt P24468); assay: Luminescence-based cell-based high throughput dose response assay to identify inhibitors of COUP-TFII (NR2F2).; format: functional;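 note: HEK293 cells transiently cotransfected with COUP-TFII expression vector and reporter; luciferase reporter luminescence driven by COUP-TFII from the pX2-168 reporter plasmid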
T1 sequence (P24468 whole entry): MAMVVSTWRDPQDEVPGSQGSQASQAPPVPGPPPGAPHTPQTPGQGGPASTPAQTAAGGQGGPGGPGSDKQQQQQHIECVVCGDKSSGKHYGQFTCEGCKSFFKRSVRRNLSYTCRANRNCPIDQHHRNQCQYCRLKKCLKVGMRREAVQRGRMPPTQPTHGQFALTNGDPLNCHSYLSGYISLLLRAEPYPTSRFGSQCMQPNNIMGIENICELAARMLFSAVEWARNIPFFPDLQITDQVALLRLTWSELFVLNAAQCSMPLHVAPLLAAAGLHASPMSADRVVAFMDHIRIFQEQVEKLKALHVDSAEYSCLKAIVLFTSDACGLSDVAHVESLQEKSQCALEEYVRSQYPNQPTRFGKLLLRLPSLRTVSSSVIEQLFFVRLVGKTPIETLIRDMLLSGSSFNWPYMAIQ

[4] = M. tuberculosis H37Rv growth inhibitors, H37Rv strain (AID 1626); format: functional
[5] = biological target: Induced myeloid leukemia cell differentiation protein Mcl-1 (Homo sapiens, UniProt Q07820); assay: blockers of MCL1 binding to BIM peptide – biochemical, fluorescence polarization, BIM-BH3 peptide, 1536-well, dose response (AID 2217)
Sequence of Induced myeloid leukemia cell differentiation protein Mcl-1 (Q07820 whole entry): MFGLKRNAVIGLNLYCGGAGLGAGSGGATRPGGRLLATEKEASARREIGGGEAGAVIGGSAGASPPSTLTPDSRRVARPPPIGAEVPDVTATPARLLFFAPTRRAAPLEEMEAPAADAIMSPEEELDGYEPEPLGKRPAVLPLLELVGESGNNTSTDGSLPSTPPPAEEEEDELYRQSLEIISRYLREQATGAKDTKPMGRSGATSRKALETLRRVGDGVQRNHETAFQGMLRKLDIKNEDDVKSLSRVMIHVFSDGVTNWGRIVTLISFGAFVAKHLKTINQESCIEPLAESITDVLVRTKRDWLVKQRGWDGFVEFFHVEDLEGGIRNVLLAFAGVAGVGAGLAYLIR

SUMO-activating enzyme [6] = biological target: T2, SUMO-activating enzyme (Homo sapiens, UniProt Q9UBT2); assay: blockers of UBC9-mediated SUMO conjugation – biochemical, AlphaScreen, SUMOylation inhibitor project, confirmation (AID 2018); format: functional
T2 sequence (Q9UBE0 whole entry): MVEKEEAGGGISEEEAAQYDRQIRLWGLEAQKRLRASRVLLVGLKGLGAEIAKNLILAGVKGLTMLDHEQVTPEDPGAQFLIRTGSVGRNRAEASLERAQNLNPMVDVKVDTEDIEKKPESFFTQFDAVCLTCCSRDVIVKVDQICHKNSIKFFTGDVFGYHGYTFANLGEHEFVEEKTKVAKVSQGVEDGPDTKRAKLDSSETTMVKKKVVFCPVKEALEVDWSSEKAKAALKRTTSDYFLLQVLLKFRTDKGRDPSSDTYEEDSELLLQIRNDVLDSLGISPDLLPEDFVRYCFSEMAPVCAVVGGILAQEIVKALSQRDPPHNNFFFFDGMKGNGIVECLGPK
T2 sequence (Q9UBT2 whole entry): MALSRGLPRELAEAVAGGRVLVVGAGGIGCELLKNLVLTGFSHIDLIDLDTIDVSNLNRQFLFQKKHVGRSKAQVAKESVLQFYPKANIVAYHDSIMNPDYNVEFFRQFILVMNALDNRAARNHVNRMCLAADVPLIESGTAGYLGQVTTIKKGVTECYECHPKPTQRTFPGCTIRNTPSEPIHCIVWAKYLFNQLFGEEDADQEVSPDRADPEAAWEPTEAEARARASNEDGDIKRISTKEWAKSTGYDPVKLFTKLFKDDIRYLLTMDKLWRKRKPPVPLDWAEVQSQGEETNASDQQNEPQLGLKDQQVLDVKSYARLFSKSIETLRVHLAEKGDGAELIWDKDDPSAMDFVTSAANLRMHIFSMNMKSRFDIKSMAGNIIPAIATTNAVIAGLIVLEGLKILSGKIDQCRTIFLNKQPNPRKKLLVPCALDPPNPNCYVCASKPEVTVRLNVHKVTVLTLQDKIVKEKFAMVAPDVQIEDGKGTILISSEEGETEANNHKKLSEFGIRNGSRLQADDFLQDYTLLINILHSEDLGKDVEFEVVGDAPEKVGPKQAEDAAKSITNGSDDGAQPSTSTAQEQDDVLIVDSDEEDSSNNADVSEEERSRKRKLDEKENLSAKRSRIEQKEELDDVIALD

Bcl-2-like protein 1 = Bcl-2-like protein 1 (Homo sapiens, UniProt Q07817); assay: blockers of BCLXL peptide binding – biochemical, fluorescence polarization, 1536-well, selectivity assay for MCL1 inhibitor project, dose response (AID 2218)
Sequence of Bcl-2-like protein 1 (Q07817 whole entry): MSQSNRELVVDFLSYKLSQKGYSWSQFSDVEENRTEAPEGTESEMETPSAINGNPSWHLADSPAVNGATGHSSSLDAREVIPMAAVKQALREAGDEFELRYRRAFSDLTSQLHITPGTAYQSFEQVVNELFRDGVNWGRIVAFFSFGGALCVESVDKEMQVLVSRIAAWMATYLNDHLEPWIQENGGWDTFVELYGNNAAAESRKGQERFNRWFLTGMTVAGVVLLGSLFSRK

SUMO-activating enzyme [7] = biological target: T2, SUMO-activating enzyme; assay: blockers of SAE1/SAE2–UBC9 SUMO transfer – biochemical, HTRF, uHTS, primary screen (AID 2006); format: protein-complex assay

Sequence of Luciferin 4-monooxygenase (P08659 whole entry): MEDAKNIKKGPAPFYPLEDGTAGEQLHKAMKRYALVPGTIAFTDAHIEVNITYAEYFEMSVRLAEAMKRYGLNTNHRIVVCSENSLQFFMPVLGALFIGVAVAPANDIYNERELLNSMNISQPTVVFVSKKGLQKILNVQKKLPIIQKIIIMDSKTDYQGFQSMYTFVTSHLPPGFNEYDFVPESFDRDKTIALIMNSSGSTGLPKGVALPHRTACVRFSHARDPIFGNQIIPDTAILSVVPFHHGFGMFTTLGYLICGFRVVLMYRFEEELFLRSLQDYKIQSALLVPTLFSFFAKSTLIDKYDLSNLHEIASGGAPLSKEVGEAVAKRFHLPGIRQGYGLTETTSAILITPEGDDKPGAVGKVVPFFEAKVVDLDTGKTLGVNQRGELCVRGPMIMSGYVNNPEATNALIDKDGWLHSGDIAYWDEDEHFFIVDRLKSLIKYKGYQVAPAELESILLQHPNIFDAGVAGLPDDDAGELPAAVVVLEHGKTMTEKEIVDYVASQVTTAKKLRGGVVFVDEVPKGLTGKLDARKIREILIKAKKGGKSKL

Clc1ccccc1OCc1nc(-c2ccccn2)no1
EC50 (HT-1080): > 50 µM (not active) | EC50 [1]: > 100 µM (not active)

O=C(Nc1ccc2[nH]c(-c3cccnc3)nc2c1)C12CC3CC(CC(C3)C1)C2
IC50 (Galanin receptor type 2): > 42 µM (not active)

Cc1cc(C)c(S(=O)(=O)NCc2ccncc2)c(C)c1
IC50 [2]: > 80 µM (inactive) | IC50 [3]: 4.96 µM (active) | IC50 (Galanin receptor type 2): > 42 µM (not active)

COc1ccc(N2CCN(c3nc(-c4cccs4)nc4ccccc34)CC2)cc1
IC50 [4]: > 100 µM (active)

Cc1ccc(C(=O)O)cc1-c1ccc(/C=C2\SC(=O)N(CC(=O)Nc3ccc4c(c3)OCO4)C2=O)o1
IC50 [5]: > 4.03 µM (active) | IC50 (SUMO-activating enzyme [6]): 4.35 µM (active) | IC50 (Bcl-2-like protein 1): > 109 µM (not active) | IC50 (SUMO-activating enzyme [7]): 10.3 µM (active)
